From BindingDB's records for doi:10.1038/nchembio.211 (Praecis Pharmaceuticals, 2009)
Numbering of substitutions follows the chain as printed.

Tests used:
Details in all cases: pH 9.5; 16 °C
Aurora kinase A [1] = molecular target: T1, Aurora kinase A (Homo sapiens, UniProt O14965); experiment: Aurora A Inhibition Assay
T1 sequence (O14965 whole entry): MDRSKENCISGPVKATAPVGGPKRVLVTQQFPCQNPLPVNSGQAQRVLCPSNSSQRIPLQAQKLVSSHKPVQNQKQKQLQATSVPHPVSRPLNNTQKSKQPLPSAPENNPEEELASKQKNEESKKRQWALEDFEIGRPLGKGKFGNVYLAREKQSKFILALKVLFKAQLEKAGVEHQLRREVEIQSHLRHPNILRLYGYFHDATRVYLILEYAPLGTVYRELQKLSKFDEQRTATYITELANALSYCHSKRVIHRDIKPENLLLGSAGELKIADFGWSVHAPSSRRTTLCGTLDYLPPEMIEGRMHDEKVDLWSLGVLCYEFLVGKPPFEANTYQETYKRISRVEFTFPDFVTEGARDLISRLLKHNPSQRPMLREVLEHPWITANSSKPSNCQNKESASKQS
Description: (§1) Selection of DNA-encoded libraries (DELs) which are covalent attachment of encoding double stranded DNA to small-molecule created using a combination of enzymatic and chemical synthesis in a split-and-pool format against Aurora A kinase

Aurora kinase A [2] = molecular target: T2, Aurora kinase A (Homo sapiens, UniProt O14965); experiment: Aurora A Inhibition Assay; remark: listed apart in the source
T2 sequence (O14965 whole entry): T1 sequence (O14965 whole entry) with I57V
Description: as §1

[3] = molecular target: Mitogen-activated protein kinase 14 (Homo sapiens, UniProt Q16539); experiment: MAPK p38 Inhibition Assay
Description: Selection of DNA-encoded libraries (DELs), which are covalent attachment of encoding double stranded DNA to small-molecule created using a combination of enzymatic and chemical synthesis in a split-and-pool format against p38 mitogen-activated protein kinase

Chain of Mitogen-activated protein kinase 14 (Q16539 whole entry): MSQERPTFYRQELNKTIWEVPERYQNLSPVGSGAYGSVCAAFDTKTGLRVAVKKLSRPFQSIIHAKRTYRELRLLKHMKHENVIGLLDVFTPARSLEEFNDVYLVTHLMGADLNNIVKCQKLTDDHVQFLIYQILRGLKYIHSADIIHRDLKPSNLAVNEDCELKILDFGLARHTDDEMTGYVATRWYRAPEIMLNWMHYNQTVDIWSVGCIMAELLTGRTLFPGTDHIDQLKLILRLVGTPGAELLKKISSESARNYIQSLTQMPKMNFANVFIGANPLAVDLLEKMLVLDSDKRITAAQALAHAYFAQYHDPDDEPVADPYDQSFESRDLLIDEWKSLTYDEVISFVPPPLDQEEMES

Row | Compound | IC50 (Aurora kinase A [1]) [µM] | also measured
1 | COc1ccccc1CCNc1nc(Nc2ccc3ncccc3c2)nc(NC(Cc2c[nH]c3ncccc23)C(N)=O)n1 (stereo unspecified) [2-(4-(2-Methoxyphenethylamino)-6-(quinolin-6-ylamino)-1,3,5-triazin-2-ylamino)-3-(1H-pyrrolo[2,3-b]pyridin-3-yl)propanamide] | 3.7 | 
2 | CCCCN(C)c1nc(NCCc2ccccc2OC)nc(NC(Cc2c[nH]c3ncccc23)C(N)=O)n1 (stereo unspecified) [2-(4-(Butyl(methyl)amino)-6-(2-methoxyphenethylamino)-1,3,5-triazin-2-ylamino)-3-(1H-pyrrolo[2,3-b]pyridin-3-yl)propanamide] | 3.8 | 
3 | CNc1nc(NCCc2ccccc2OC)nc(Nc2ccc3ncccc3c2)n1 [DEL-A, 12] |  | IC50 (Aurora kinase A [2]): 5.1 µM
4 | CNC(=O)[C@H](Cc1ccc2c(c1)COC(C)(C)O2)Nc1nc(NCC(C)C)nc(-n2cnc3cc(C(=O)N4CCCc5ccccc54)ccc32)n1 [(S)-3-(2,2-Dimethyl-4H-benzo[d][1,3]dioxin-6-yl)-2-(4-(isobutylamino)-6-(5-(1,2,3,4-tetrahydroquinoline-1-carbonyl)-1H-benzo[d]imidazol-1-yl)-1,3,5-triazin-2-ylamino)-N-methylpropanamide] |  | EC50 [3]: 0.25 µM
5 | CCCCN(C)c1nc(NCCc2ccccc2OC)nc(NCCc2c[nH]c3ncccc23)n1 [N2-(2-(1H-Pyrrolo[2,3-b]pyridin-3-yl)ethyl)-N4-butyl-N6-(2-methoxyphenethyl)-N4-methyl-1,3,5-triazine-2,4,6-triamine] | 1.2 | 
6 | COc1ccccc1CCNc1nc(NC(Cc2c[nH]c3ncccc23)C(N)=O)nc(N(C)[C@@H](C)c2ccccc2)n1 (stereo partly drawn) [2-(4-(2-Methoxyphenethylamino)-6-(methyl((S)-1-phenylethyl)amino)-1,3,5-triazin-2-ylamino)-3-(1H-pyrrolo[2,3-b]pyridin-3-yl)propanamide] | 6.3 | 
